Values joined by “and” are separate entries in the source; they are usually repeats but may differ in a detail not shown here. Equal values may be shown once. Read-outs that look alike come from different tables or passages of the source.
What was measured:
human recombinant GCL = human recombinant GCL (Homo sapiens (Human), UniProt P48506); test: GCL enzyme profiling assay (ADP-Glo luminescence); format: biochemical
Outline: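 IC50 fitted by four-parameter logistic to luminescent ADP formation (ADP-Glo). Reaction at room temperature in HEPES pH 7.5 with 30 mM MgCl2, 0.2% F-127, 1% DMSO; 5 nM GCL and 0.6 mM ATP preincubated 1 h before adding 1 mM glutamate plus 1.2 mM α-aminobutyrate for 2 h.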

RKN cells = test: RKN cell profiling assay (cell viability, CellTiter-Glo); format: cell-based; settings: read-out: Cell Killing EC50
Outline: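 Viability read by CellTiter-Glo luminescence after 96 h compound exposure (0.5% DMSO final) of cells plated at 1,000/well in 10% FBS F-12 and allowed 24 h attachment. Four-parameter fits gave EC50; rescue arms used ferrostatin-1, 1.5 μM, present from seeding.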

[1] = human recombinant GCL 5 nM, 1 h preincubation with ATP, read-out: GCL IC50
[2] = human recombinant GCL, ADP-Glo, read-out: GCL IC50

human recombinant GCL, sequence (P48506 whole entry): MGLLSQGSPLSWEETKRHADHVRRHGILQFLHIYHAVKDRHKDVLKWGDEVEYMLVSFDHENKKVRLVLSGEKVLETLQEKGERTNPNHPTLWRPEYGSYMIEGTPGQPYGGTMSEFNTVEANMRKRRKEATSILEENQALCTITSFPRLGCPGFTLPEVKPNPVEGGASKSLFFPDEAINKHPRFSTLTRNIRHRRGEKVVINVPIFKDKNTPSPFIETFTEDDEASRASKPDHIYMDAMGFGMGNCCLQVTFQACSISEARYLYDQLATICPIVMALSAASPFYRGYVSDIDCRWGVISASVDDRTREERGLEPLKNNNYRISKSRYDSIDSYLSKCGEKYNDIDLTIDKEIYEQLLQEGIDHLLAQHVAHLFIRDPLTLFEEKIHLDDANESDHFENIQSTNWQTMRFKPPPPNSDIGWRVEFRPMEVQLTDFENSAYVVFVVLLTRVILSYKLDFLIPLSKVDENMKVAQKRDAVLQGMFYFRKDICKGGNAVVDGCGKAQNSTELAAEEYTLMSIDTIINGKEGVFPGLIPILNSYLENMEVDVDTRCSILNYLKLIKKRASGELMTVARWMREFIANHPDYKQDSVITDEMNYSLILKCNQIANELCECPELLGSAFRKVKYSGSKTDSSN

SMILES	IC50 (human recombinant GCL; [1])	IC50 (human recombinant GCL; human recombinant GCL 5 nM, 1 h preincubation with ATP, read-out: GCL IC50 (mM), individual values in parentheses)	IC50 (human recombinant GCL; [2]) [mM]	EC50 (RKN cells; 96 h, 96 h exposure) [mM]	EC50 (RKN cells; cell viability) [mM]
CC(C)(C)CCS1(=O)=NC(=O)[C@@H](N)CC1 (stereo partly drawn) [Compound 201, (1S,4R)-4-amino-1-(3,3-dimethylbutyl)-5,6-dihydro-1,2-thiazin-3 (4H)-one 1-oxide]	0.02 to 2 mM	–	–	< 1	–
N[C@H]1CCS(=O)(CCCC(F)(F)F)=NC1=O (stereo partly drawn) [Compound 202, (1S,4R)-4-amino-1-(4,4,4-trifluorobutyl)-5,6-dihydro-1,2-thiazin-3 (4H)-one 1-oxide]	0.02 to 2 mM	–	–	< 1	–
N=S(=O)(CCCC(F)(F)F)CC[C@H](N)c1ncon1 (stereo partly drawn) [Compound 203, (1S)-1-(1,2,4-oxadiazol-3-yl)-3-(4,4,4-trifluorobutylsulfonimidoyl)propan-1-amine]	> 2 mM	–	–	≥ 1	–
N=S(=O)(CCCC(F)(F)F)CC[C@H](N)c1ncno1 (stereo partly drawn) [Compound 204, (1S)-1-(1,2,4-oxadiazol-5-yl)-3-(4,4,4-trifluorobutylsulfonimidoyl)propan-1-amine]	> 2 mM	–	–	≥ 1	–
N=S(=O)(CCCC(F)(F)F)CC[C@H](N)c1ncn[nH]1 (stereo partly drawn) [Compound 205, (1S)-1-(1H-1,2,4-triazol-5-yl)-3-(4,4,4-trifluorobutylsulfonimidoyl)propan-1-amine]	≤ 0.02 mM and 0.02 to 2 mM	–	–	≥ 1	–
N=S(=O)(CC[C@H](N)C(=O)O)CCC1(NC(N)=O)CCC1 (stereo partly drawn) [Compound 206, (2S)-2-amino-4-(2-(1-ureidocyclobutyl)ethylsulfonimidoyl)butanoic acid]	0.02 to 2 mM	–	–	< 1	–
CC(C)(CCS(=N)(=O)CC[C@H](N)C(=O)O)n1cc(-c2ccccc2)nn1 (stereo partly drawn) [Compound 207, (2S)-2-amino-4-(3-methyl-3-(4-phenyl-1H-1,2,3-triazol-1-yl)butylsulfonimidoyl)butanoic acid]	0.02 to 2 mM	–	–	≥ 1	–
CC(C)(CCS(=N)(=O)CC[C@H](N)C(=O)O)n1ncc(-c2ccccc2)n1 (stereo partly drawn) [Compound 208, (2S)-2-amino-4-(3-methyl-3-(4-phenyl-2H-1,2,3-triazol-2-yl)butylsulfonimidoyl)butanoic acid]	≤ 0.02 mM and 0.02 to 2 mM	0.0204 mM and 0.02 mM	–	< 1	–
N=S(=O)(CC[C@H](N)C(=O)O)CCC(O)(c1ccccc1Cl)C(F)(F)F (stereo partly drawn) [Compound 209, (2S)-2-amino-4-(3-(2-chlorophenyl)-4,4,4-trifluoro-3-hydroxybutylsulfonimidoyl)butanoic acid]	≤ 0.02 mM	–	–	< 1	–
N=S(=O)(CCC(N)C(F)(F)F)CC[C@H](N)C(=O)O (stereo partly drawn) [Compound 210, (2S)-2-amino-4-(3-amino-4,4,4-trifluorobutylsulfonimidoyl)butanoic acid]	0.02 to 2 mM	–	–	< 1	–
N=S(=O)(CCC(c1ccc(-c2ccccc2)cc1)C(F)(F)F)CC[C@H](N)C(=O)O (stereo partly drawn) [Compound 211, (2S)-4-(3-([1,1′-biphenyl]-4-yl)-4,4,4-trifluorobutylsulfonimidoyl)-2-aminobutanoic acid]	≤ 0.02 mM	–	–	< 1	–
N=S(=O)(CCC(c1ccc(-c2ccccc2Cl)cc1)C(F)(F)F)CC[C@H](N)C(=O)O (stereo partly drawn) [Compound 212, (2S)-2-amino-4-(3-(2′-chloro-[1,1′-biphenyl]-4-yl)-4,4,4-trifluorobutylsulfonimidoyl)butanoic acid]	≤ 0.02 mM	–	–	< 1	–
N=S(=O)(CCC(c1ccc(CCC(F)(F)F)cc1)C(F)(F)F)CC[C@H](N)C(=O)O (stereo partly drawn) [Compound 213, (2S)-2-amino-4-(4,4,4-trifluoro-3-(4-(3,3,3-trifluoropropyl)phenyl)butylsulfonimidoyl)butanoic acid]	–	–	≤ 0.02	–	≥ 1
N#CC1CC=C(c2ccc(C(CCS(=N)(=O)CC[C@H](N)C(=O)O)C(F)(F)F)cc2)CC1 (stereo partly drawn) [Compound 214, (2S)-2-amino-4-(3-(4′-cyano-2′,3′,4′,5′-tetrahydro-[1,1′-biphenyl]-4-yl)-4,4,4-trifluorobutylsulfonimidoyl)butanoic acid]	–	–	≤ 0.02	–	≥ 1
N=S(=O)(CCC(c1ccc(C#Cc2ccccc2)cc1)C(F)(F)F)CC[C@H](N)C(=O)O (stereo partly drawn) [Compound 215, (2S)-2-amino-4-(4,4,4-trifluoro-3-(4-(phenylethynyl)phenyl)butylsulfonimidoyl)butanoic acid]	–	–	≤ 0.02	–	< 1
N=S(=O)(CCC(c1ccc(S(=O)(=O)c2ccccc2)cc1)C(F)(F)F)CC[C@H](N)C(=O)O (stereo partly drawn) [Compound 216, (2S)-2-amino-4-(4,4,4-trifluoro-3-(4-(phenylsulfonyl)phenyl)butylsulfonimidoyl) butanoic acid]	–	–	0.02 to 2	–	≥ 1
N=S(=O)(CCC(c1ccc(-c2cc(F)cc(F)c2)cc1)C(F)(F)F)CC[C@H](N)C(=O)O (stereo partly shown) [Compound 222]	–	–	≤ 0.02	–	< 1
CCCc1ccc(C(CCS(=N)(=O)CC[C@H](N)C(=O)O)C(F)(F)F)cc1 (stereo partly shown) [Compound 223]	–	–	≤ 0.02	–	< 1
CCCCc1ccc(C(CCS(=N)(=O)CC[C@H](N)C(=O)O)C(F)(F)F)cc1 (stereo partly shown) [Compound 224]	–	–	≤ 0.02	–	< 1
N=S(=O)(CCC(c1ccc(-c2cc(F)ccc2O)cc1)C(F)(F)F)CC[C@H](N)C(=O)O (stereo partly shown) [Compound 232]	–	–	≤ 0.02	–	< 1
N=S(=O)(CCC(c1ccc(-c2ccc(OC(F)(F)F)cc2)cc1)C(F)(F)F)CC[C@H](N)C(=O)O (stereo partly shown) [Compound 233]	–	–	≤ 0.02	–	< 1
N=S(=O)(CCC(c1ccc(-c2cc(Cl)cc(Cl)c2)cc1)C(F)(F)F)CC[C@H](N)C(=O)O (stereo partly shown) [Compound 234]	–	–	≤ 0.02	–	≥ 1
COc1ccc(Cl)cc1-c1ccc(C(CCS(=N)(=O)CC[C@H](N)C(=O)O)C(F)(F)F)cc1 (stereo partly shown) [Compound 236]	–	–	≤ 0.02	–	< 1
N=S(=O)(CCC(c1ccc(-c2ccc(Cl)c(C(F)(F)F)c2)cc1)C(F)(F)F)CC[C@H](N)C(=O)O (stereo partly shown) [Compound 237]	–	–	≤ 0.02	–	< 1
N=S(=O)(CCC(c1ccc(-c2cc(F)ccc2Cl)cc1)C(F)(F)F)CC[C@H](N)C(=O)O (stereo partly shown) [Compound 238]	–	–	≤ 0.02	–	< 1
N=S(=O)(CCC(c1ccc(-c2cccc(N)c2)cc1)C(F)(F)F)CC[C@H](N)C(=O)O (stereo partly shown) [Compound 239]	–	–	≤ 0.02	–	≥ 1
N#Cc1cccc(-c2ccc(C(CCS(=N)(=O)CC[C@H](N)C(=O)O)C(F)(F)F)cc2)c1F (stereo partly shown) [Compound 240]	–	–	≤ 0.02	–	≥ 1
COc1cncc(-c2ccc(C(CCS(=N)(=O)CC[C@H](N)C(=O)O)C(F)(F)F)cc2)c1 (stereo partly shown) [Compound 242]	–	–	≤ 0.02	–	≥ 1
N#Cc1ccc(-c2ccc(C(CCS(=N)(=O)CC[C@H](N)C(=O)O)C(F)(F)F)cc2)cn1 (stereo partly shown) [Compound 244]	–	–	≤ 0.02	–	≥ 1
N=S(=O)(CCC(c1ccc(-c2cncc(F)c2)cc1)C(F)(F)F)CC[C@H](N)C(=O)O (stereo partly shown) [Compound 247]	–	–	≤ 0.02	–	≥ 1

Now from value to molecule, other results behind:

IC50 (human recombinant GCL; [1])	IC50 (human recombinant GCL; human recombinant GCL 5 nM, 1 h preincubation with ATP, read-out: GCL IC50 (mM), individual values in parentheses)	IC50 (human recombinant GCL; [2]) [mM]	SMILES	EC50 (RKN cells; 96 h, 96 h exposure) [mM]	EC50 (RKN cells; cell viability) [mM]
–	–	≤ 0.02	N=S(=O)(CCC(c1ccc(-c2cncc(C(F)(F)F)c2)cc1)C(F)(F)F)CC[C@H](N)C(=O)O (stereo partly shown) [Compound 250]	–	≥ 1
–	–	≤ 0.02	N=S(=O)(CCC(Cc1ccccc1)C(F)(F)F)CC[C@H](N)C(=O)O (stereo partly drawn) [Compound 292, (2S)-2-amino-4-(3-benzyl-4,4,4-trifluorobutylsulfonimidoyl)butanoic acid]	–	≥ 1
–	–	≤ 0.02	CC(CCS(=N)(=O)CC[C@H](N)C(=O)O)(c1ccccc1)C(F)(F)F (stereo partly shown) [Compound 293]	–	≥ 1
–	–	≤ 0.02	N=S(=O)(CC[C@H](N)C(=O)O)CCC12CC(C1)C2 (stereo partly shown) [Compound 294]	–	< 1
–	–	0.02 to 2	COC(C)(C)CCCS(=N)(=O)CC[C@H](N)C(=O)O (stereo partly shown) [Compound 295]	–	≥ 1
–	–	≤ 0.02	N=S(=O)(CC[C@H](N)C(=O)O)CCC1(C(F)(F)F)CCC1 (stereo partly shown) [Compound 296]	–	< 1
–	–	0.02 to 2	N=S(=O)(CC[C@H](N)C(=O)O)CCC1(O)CCCCC1 (stereo partly shown) [Compound 297]	–	≥ 1
–	–	0.02 to 2	C#CC(C)(C)CCS(=N)(=O)CC[C@H](N)C(=O)O (stereo partly shown) [Compound 299]	–	< 1
–	–	0.02 to 2	CC1(CCS(=N)(=O)CC[C@H](N)C(=O)O)CCCCC1 (stereo partly shown) [Compound 300]	–	≥ 1
–	–	≤ 0.02	N=S(=O)(CC[C@H](N)C(=O)O)CCC(O)(C(F)(F)F)C(F)(F)F (stereo partly shown) [Compound 301]	–	< 1
–	–	0.02 to 2	N=S(=O)(CC[C@H](N)C(=O)O)CCC1(O)[C@H]2C[C@@H]3C[C@@H](C[C@H]1C3)C2 (stereo partly shown) [Compound 302]	–	≥ 1
–	–	0.02 to 2	N=S(=O)(CC[C@H](N)C(=O)O)CCC1(O)CC(F)(F)C1 (stereo partly shown) [Compound 303]	–	< 1
–	–	≤ 0.02	COC(=O)C(CCS(=N)(=O)CC[C@H](N)C(=O)O)C(F)(F)F (stereo partly shown) [Compound 305]	–	≥ 1
–	–	≤ 0.02	N=S(=O)(CCC(C(=O)O)C(F)(F)F)CC[C@H](N)C(=O)O (stereo partly shown) [Compound 306]	–	< 1
–	–	0.02 to 2	CNC(=O)C(CCS(=N)(=O)CC[C@H](N)C(=O)O)C(F)(F)F (stereo partly shown) [Compound 307]	–	< 1
–	–	0.02 to 2	N=S(=O)(CCC(C(N)=O)C(F)(F)F)CC[C@H](N)C(=O)O (stereo partly shown) [Compound 308]	–	< 1
–	–	≤ 0.02	N=S(=O)(CCC(c1ccccc1Cl)C(F)(F)F)CC[C@H](N)C(=O)O (stereo partly shown) [Compound 309]	–	< 1
–	–	≤ 0.02	N=S(=O)(CCC(c1ccc2ccccc2c1)C(F)(F)F)CC[C@H](N)C(=O)O (stereo partly shown) [Compound 310]	–	< 1

Source: patent US20260034094A1, “COMPOSITIONS AND METHODS FOR INDUCING FERROPTOSIS” (Kojin Therapeutics, Inc., priority 2022, published 2026)
